Results: patent publication US20240115645A1, “DRUG FOR TREATING UROLITHIASIS-RELATED DISEASE, AND PREPARATION METHOD THEREFOR” (HONG ZHANG, priority 2021, published 2024)

Columns and labels:
SD rats [1] = assay: Kidney lesions under HE microscope in rat urolithiasis model (1% ethylene glycol + 2% ammonium chloride); format: in vivo; set-up: key to Renal tubule dilation lesions / Renal interstitial inflammatory cell infiltration / Calcium oxalate crystal aggregation: No lesion was represented by −; mild lesion was +; lesion was ++; significant lesion was +++; conditions: potassium sodium hydrogen citrate group
Excerpt: (§1) II. Experimental example of pharmacological activity • 1. Preparation of test samples • (1) High-dose group test sample: the water-extracted, 0-25% ethanol gradient eluent by polyamide column prepared in Preparation Example 5 was concentrated and dried to obtain the active ingredient extract. A solution with a density of about 1.2 g/ml was formulated, and the concentration of the effective substance measured by the pharmacopoeia standard and the absorbance method (using rutin as a standard substance to make a standard curve) is about 130.4 mg/ml. • (2) Medium-dose group test sample: the high-dose group sample was diluted once to obtain the middle-dose group test sample. • (3) Low-dose group test sample: the middle-dose group sample was dilute once to obtain the low-dose group test sample. • (4) Positive control group test sample: potassium sodium hydrogen citrate aqueous solution with a concentration of 100 mg/ml, 3 ml per day, equivalent to 300 mg/d. • 2. Animal experiments • 2.1. Experimental animals and feeding conditions
36 male SD rats of SPF grade, 6-8 weeks old, 200-250 g. • 2.2.3 Model preparation
SD rats were fed adaptively for 7 days, and all groups (except the normal group) were administered 1% ethylene glycol (by drinking water)+2% ammonium chloride (by intragastric administration) 2 ml/rat to establish a model for 28 consecutive days. • 2.2.4 Experimental grouping and processing
36 male SD rats were randomly divided into 6 groups according to body weight, 6 rats in each group. These are normal group, model group, potassium sodium hydrogen citrate group, traditional Chinese medicine extract (low, medium, high) dose group. During the modeling process, 3 ml of the drug was administered by intragastric administration every day, and the drug included the positive control drug and the purified part through the polyamide column. The animals were euthanized after 4 weeks. • 2.2.5 Kidney
The kidney tissues were peeled off in vivo, the kidney on one side was stored in a cryopreservation tube at −80° C. for tissue homogenate to detect Ca2+ concentration, and the kit operation steps were the same as above; the […] kidney on the other side was fixed in formalin solution for tissue sectioning to perform HE staining. • (1) The steps for making paraffin sections were as follows:
(1) fixation, (2) trimming, (3) dehydration, (4) transparency, (5) wax immersion, (6) embedding, (7) slicing, (8) baking slices, (9) preservation: packed in boxes and stored at room temperature. • (2) HE staining steps were as follows:
(1) dewaxing and rehydration, (2) dyeing, (3) dehydration, transparency, mounting,
(4) staining results: the nucleus was blue, the cytoplasm was pink, and the red blood cells were bright red. • 3. Test results • 3.1. Positive test results for calcium oxalate crystals in rat urine
The results consisted of three parts: calcium oxalate crystal aggregation, renal tubule dilation lesions, and chronic renal interstitial inflammatory cell infiltration.

SD rats [2] = assay: Serum CRE and BUN levels of urolithiasis model rats; format: in vivo, rat; conditions: all groups, 4 weeks
Excerpt: as §1
(§2) 36 male SD rats of SPF grade, 6-8 weeks old, 200-250 g. • 2.2.3 Model preparation […]

SD rats [3] = assay: Ca2+ concentration in serum, urine and kidney tissue of urolithiasis model rats; format: in vivo, rat; conditions: potassium sodium hydrogen citrate drug group, 300 mg/d
Excerpt: as §1, §2

[4] = 100 mg/ml, 3 ml per day (300 mg/d) intragastric, 4 weeks

Structure (SMILES): O.O=C([O-])CC(O)(CC(=O)[O-])C(=O)O.O=C([O-])CC(O)(CC(=O)[O-])C(=O)O.O=C([O-])CC(O)(CC(=O)[O-])C(=O)O.O=C([O-])CC(O)(CC(=O)[O-])C(=O)[O-].O=C([O-])CC(O)(CC(=O)[O-])C(=O)[O-].[K+].[K+].[K+].[K+].[K+].[K+].[Na+].[Na+].[Na+].[Na+].[Na+].[Na+] [potassium sodium hydrogen citrate]
- Calcium oxalate crystal aggregation (SD rats [1]; [4]): ++
- Renal interstitial inflammatory cell infiltration (SD rats [1]; [4]): +
- Renal tubule dilation lesions (SD rats [1]; [4]): ++
- brownish yellow calcium oxalate crystals under the HE microscope, compared with the model group (SD rats [1]; 300 mg/d): did not decrease significantly
- inflammatory cell infiltration in the renal interstitium under the HE microscope (SD rats [1]; 300 mg/d): occasionally seen
- renal tubule dilatation under the HE microscope, compared with the model group (SD rats [1]; 300 mg/d): improved
- BUN levels in serum, order of groups from high to low (SD rats [2]): model group>low dose treatment group>potassium sodium hydrogen citrate drug group>medium dose treatment group>high dose treatment group>normal group
- CRE levels in serum, order of groups from high to low (SD rats [2]): model group>medium dose treatment group>potassium sodium hydrogen citrate drug group>low dose treatment group>high dose treatment group>normal group
- Ca2+ concentration in kidney tissue, difference compared with the model group and the normal group (SD rats [3]): very significant difference (P<0.01)
- Ca2+ concentration in kidney tissue, rank among groups (SD rats [3]): highest concentration
